In US20130251644A1, “Cyclodextrin-Based Microemulsions, and Dermatological Uses Thereof” (PRECISION DERMATOLOGY, INC., priority 2012, published 2013):

Tests used:
[1] = cited from earlier work
[2] = Solubility/dispersibility of retinol in the Labrasol-HPGCD-water systems and in water; type: physicochemical
Description: Microemulsion preparation: Any two components (examples: Labrasol®-water, HPXCD-water, or Labrasol®-HPXCD) were mixed (in different ratios) in different scintillation vials and then the third component was titrated to each vial until a clear-to-turbid or turbid-to-clear transition occurred (in simple situations). Finally wt % percentages data for each component (Labrasol®, water, and cyclodextrin) were plotted to construct the ternary phase diagram.
Cyclodextrin used: hydroxypropyl-X-cyclodextrin (X=alpha, beta, or gamma).
Any two components (examples: Labrasol®-water, cyclodextrin-water, or Labrasol®-HPBCD) were mixed (in different ratios) in different scintillation vials and then the third component was titrated to each vial until a clear-to-turbid or turbid-to-clear transition occurred (in simple situations). Finally wt % percentages data for each component (Labrosol, water, and cyclodextrin) were plotted to construct the ternary phase diagram.

Q: Which results are given for `CC1=C(/C=C/C(C)=C/C=C/C(C)=C/CO)C(C)(C)CCC1` [solid retinol, Retinol]?
A: miscibility in water [1]: immiscible in water; amount of retinol that can be incorporated into the cyclodextrin-based microemulsions ([2]; cyclodextrin-based microemulsion systems): greater than 1.0 wt %; miscibility in Labrasol®-HPGCD-water microemulsion system ([2]; final retinol concentration 1.2%, clear transparent system (vials 8 and 1, FIG. 4(b), 4(c))): complete miscibility
